# ChEMBL document CHEMBL5505978, “Novel estrogen receptor β/histone deacetylase dual-targeted near-infrared fluorescent probes as theranostic agents for imaging and treatment of prostate cancer” (Eur J Med Chem, 2024)
# Calls of active or inactive are those of the source. No cut-off for these calls is given here.
# Experiments:
# in vitro = details: green monkey (Chlorocebus sabaeus), Vero cells
# Description: Antiproliferative activity against green monkey Vero cells assessed as inhibition of cell growth incubated for 3 to 5 days by CCK-8 assay
# DU-145 [1] = assay: cells; type: functional, cell-based; details: Homo sapiens
# Description: Antiproliferative activity against human DU-145 cells assessed as inhibition of cell growth incubated for 3 to 5 days by CCK-8 assay
# [2] = Drug uptake in human DU-145 cells assessed as colocalization in nucleus by measuring fluorescence signal at 10 uM incubated for 30 mins by DAPI staining based fluorescence imaging analysis; type: ADME, cell-based; details: du-145, 0.5 h
# [3] = Drug uptake in human DU-145 cells assessed as colocalization in […] by measuring fluorescence signal at 10 uM incubated for 30 mins by Mito-Tracker Green staining based fluorescence imaging analysis; type: ADME, cell-based; details: du-145, 0.5 h
# [4] = molecular target: T1, Protein deacetylase HDAC6 (Homo sapiens, UniProt Q9UBN7); assay: Inhibition of HDAC6 (unknown origin) preincubated with compound for 30 mins followed by substrate addition measured after 15 mins by fluorescence based assay
# T1 sequence (Q9UBN7 whole entry): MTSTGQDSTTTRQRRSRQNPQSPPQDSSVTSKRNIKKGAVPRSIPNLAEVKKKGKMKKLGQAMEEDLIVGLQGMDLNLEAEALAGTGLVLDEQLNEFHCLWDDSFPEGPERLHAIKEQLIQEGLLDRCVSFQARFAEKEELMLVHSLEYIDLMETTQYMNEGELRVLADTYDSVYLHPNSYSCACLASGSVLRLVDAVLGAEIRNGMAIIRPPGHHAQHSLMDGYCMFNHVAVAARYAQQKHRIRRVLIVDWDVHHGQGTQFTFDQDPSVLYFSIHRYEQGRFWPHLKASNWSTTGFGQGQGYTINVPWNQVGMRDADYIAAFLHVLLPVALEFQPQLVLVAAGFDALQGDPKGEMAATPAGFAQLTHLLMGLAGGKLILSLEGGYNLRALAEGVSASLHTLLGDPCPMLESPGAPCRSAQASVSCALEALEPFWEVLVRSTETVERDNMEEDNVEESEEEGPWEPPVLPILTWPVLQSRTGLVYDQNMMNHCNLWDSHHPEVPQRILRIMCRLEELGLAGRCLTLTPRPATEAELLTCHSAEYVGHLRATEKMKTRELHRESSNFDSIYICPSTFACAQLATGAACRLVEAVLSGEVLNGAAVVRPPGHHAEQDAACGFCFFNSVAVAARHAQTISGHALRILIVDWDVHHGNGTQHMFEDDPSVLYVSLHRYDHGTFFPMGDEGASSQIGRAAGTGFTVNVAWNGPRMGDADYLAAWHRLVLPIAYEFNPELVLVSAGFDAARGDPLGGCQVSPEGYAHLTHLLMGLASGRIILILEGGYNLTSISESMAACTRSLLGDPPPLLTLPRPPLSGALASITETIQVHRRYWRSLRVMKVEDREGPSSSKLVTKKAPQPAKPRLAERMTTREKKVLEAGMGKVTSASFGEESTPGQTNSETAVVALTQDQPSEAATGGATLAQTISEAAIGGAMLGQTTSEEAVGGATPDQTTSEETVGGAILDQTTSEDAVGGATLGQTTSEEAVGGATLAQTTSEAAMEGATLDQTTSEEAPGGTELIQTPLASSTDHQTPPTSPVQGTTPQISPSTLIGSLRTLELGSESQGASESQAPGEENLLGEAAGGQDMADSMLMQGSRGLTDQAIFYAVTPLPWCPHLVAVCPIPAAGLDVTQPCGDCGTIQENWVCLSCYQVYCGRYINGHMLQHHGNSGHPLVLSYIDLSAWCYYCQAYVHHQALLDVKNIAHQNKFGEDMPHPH
# [5] = molecular target: Estrogen receptor beta (Homo sapiens) (UniProt Q92731); assay: Binding affinity to ERbeta in human DU-145 cells at 10 uM incubated for 30 mins by immunofluorescence based assay; type: cell-based; details: filed as agonist
# [6] = molecular target: T2, Protein deacetylase HDAC6 (Homo sapiens) (UniProt Q9UBN7); assay: Binding affinity to HDAC6 in human DU-145 cells at 10 uM incubated for 30 mins by Alexa Fluor 488 staining based immunofluorescence based assay; type: cell-based; details: filed as agonist
# T2 sequence (whole entry): T1 sequence (Q9UBN7 whole entry)
# Histone deacetylase 1 = Histone deacetylase 1 (Homo sapiens, UniProt Q13547); assay: Inhibition of HDAC1 (unknown origin) preincubated with compound for 30 mins followed by substrate addition measured after 15 mins by fluorescence based assay
# [7] = Drug uptake in Balb/c mouse xenografted with human DU-145 cells assessed as increase in fluorescence intensity in tumor at 0.5 mg/kg,ip administration and measured upto 24 hrs by imaging analysis; type: ADME, organism-based; details: in vivo
# [8] = Drug uptake in Balb/c mouse xenografted with human DU-145 cells assessed as increase in fluorescence intensity in tumor at 0.5 mg/kg,ip administration and measured at 17 hrs by imaging analysis; type: ADME, organism-based; details: in vivo
# [9] = Toxicity in Balb/c mouse xenografted with human DU-145 cells assessed as change in body weight at 10 mg/kg,ip administration once every 2 days for 20 days; type: organism-based; details: in vivo, 480 h, time 20 day
# [10] = Drug uptake in Balb/c mouse xenografted with human DU-145 cells assessed as increase in fluorescence intensity in tumor tissue at 0.5 mg/kg,ip administration and measured at 24 hrs by imaging analysis; type: ADME, organism-based, Neoplasm; details: in vivo
# DU-145 [11] = assay: Antitumor activity against human DU-145 cells xenografted in Balb/c mouse assessed as inhibition of tumor growth at 10 mg/kg,ip administration once every 2 days for 20 days; type: functional, organism-based; details: time 20.0 day
# [12] = molecular target: Estrogen receptor beta (Homo sapiens) (UniProt Q92731); assay: Binding affinity to ERbeta in human DU-145 cells assessed as increase in intracellular fluorescence signal at 10 uM incubated for 30 mins by imaging analysis; type: cell-based; details: filed as agonist
# DU-145 [13] = assay: Antitumor activity against human DU-145 cells xenografted in Balb/c mouse assessed as reduction in tumor volume at 10 mg/kg,ip administration once every 2 days for 20 days; type: functional, organism-based; details: time 20.0 day
# [14] = Drug uptake in Balb/c mouse xenografted with human DU-145 cells assessed as increase in fluorescence intensity in tumor tissue at 0.5 mg/kg,ip administration and measured at 17 hrs by imaging analysis; type: ADME, organism-based, Neoplasm; details: in vivo
# [15] = molecular target: Estrogen receptor beta (Homo sapiens) (UniProt Q92731); assay: Binding affinity to ERbeta in human DU-145 cells assessed as increase in intracellular fluorescence signal at 10 uM incubated for 30 mins in presence of estradiol by imaging analysis; type: cell-based
# [16] = Toxicity in Balb/c mouse xenografted with human DU-145 cells assessed as animal death at 10 mg/kg,ip administration once every 2 days for 20 days; type: organism-based; details: in vivo, 480 h, time 20 day
# [17] = Drug uptake in Balb/c mouse xenografted with human DU-145 cells assessed as increase in fluorescence intensity in liver at 0.5 mg/kg,ip administration and measured at 17 hrs by imaging analysis; type: ADME, organism-based; details: in vivo
# DU-145 [18] = assay: Antitumor activity against human DU-145 cells xenografted in Balb/c mouse assessed as reduction in tumor weight at 10 mg/kg,ip administration once every 2 days for 20 days; type: functional, organism-based; details: time 20.0 day
# [19] = Drug uptake in Balb/c mouse xenografted with human DU-145 cells assessed as increase in fluorescence intensity in tumor tissue at 0.5 mg/kg,ip administration and measured at 36 hrs by imaging analysis; type: ADME, organism-based, Neoplasm; details: in vivo
# [20] = Drug uptake in Balb/c mouse xenografted with human DU-145 cells assessed as increase in fluorescence intensity in kidney at 0.5 mg/kg,ip administration and measured at 17 hrs by imaging analysis; type: ADME, organism-based; details: in vivo
# [21] = molecular target: Estrogen receptor beta (Homo sapiens) (UniProt Q92731); assay: Binding affinity to ERbeta in human DU-145 cells assessed as increase in intracellular fluorescence signal at 10 uM incubated for 1 hr in presence of SAHA by imaging analysis; type: cell-based
# [22] = Drug uptake in Balb/c mouse xenografted with human DU-145 cells assessed as increase in fluorescence intensity in tumor at 0.5 mg/kg,ip administration and measured at 12 hrs by imaging analysis; type: ADME, organism-based; details: in vivo
# Estrogen receptor beta (Homo sapiens), sequence (Q92731 whole entry): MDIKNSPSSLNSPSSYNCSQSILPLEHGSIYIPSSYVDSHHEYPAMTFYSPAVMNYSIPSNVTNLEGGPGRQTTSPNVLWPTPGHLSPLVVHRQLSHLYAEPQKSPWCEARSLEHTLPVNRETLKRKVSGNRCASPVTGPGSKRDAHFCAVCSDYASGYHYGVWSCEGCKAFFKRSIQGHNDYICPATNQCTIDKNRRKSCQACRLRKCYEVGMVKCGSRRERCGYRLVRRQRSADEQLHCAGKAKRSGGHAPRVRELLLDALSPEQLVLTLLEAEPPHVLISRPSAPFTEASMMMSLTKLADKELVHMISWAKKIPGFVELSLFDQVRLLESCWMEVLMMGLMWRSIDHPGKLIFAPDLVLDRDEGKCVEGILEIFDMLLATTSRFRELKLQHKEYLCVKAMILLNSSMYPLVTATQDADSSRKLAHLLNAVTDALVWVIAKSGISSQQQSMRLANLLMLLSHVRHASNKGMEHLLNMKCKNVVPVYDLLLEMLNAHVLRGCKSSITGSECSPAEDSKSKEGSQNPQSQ
# Histone deacetylase 1, sequence (Q13547 whole entry): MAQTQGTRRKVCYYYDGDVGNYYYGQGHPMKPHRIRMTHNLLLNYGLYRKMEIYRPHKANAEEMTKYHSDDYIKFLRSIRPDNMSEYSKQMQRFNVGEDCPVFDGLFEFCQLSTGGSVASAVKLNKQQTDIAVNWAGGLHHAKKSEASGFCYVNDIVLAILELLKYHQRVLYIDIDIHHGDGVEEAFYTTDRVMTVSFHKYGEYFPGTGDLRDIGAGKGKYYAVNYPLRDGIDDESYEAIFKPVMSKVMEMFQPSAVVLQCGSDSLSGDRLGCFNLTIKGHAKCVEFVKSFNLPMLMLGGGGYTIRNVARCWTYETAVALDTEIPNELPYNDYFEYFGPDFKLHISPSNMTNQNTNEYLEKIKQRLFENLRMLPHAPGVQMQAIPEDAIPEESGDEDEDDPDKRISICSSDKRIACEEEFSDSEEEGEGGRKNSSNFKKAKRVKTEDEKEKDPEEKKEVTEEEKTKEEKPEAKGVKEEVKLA
smiles,measurement,setting,value
N#CC(C#N)=C1C=C(/C=C/c2ccc(O)cc2)Oc2ccc(O)cc21,IC50,in vitro,1.45 µM
same,IC50,DU-145 [1],0.27 µM
N#CC(C#N)=C1C=C(/C=C/c2ccc(O)c(NC(=O)CCCCCCC(=O)NO)c2)Oc2ccc(O)cc21,Drug uptake,[2],Active
same,Drug uptake,[3],Active
same,IC50,[4],2.36 µM
same,Activity,[5],96.3%
same,IC50,in vitro,> 100 µM
same,Activity,[6],97.6%
same,IC50,DU-145 [1],15.3 µM
same,IC50,Histone deacetylase 1,Not Active
N#CC(C#N)=C1C=C(/C=C/c2ccc(O)c(NC(=O)CCCCCCC(=O)NO)c2)Oc2ccccc21,Drug uptake,[2],Active
same,Drug uptake,[3],Active
same,Drug uptake,[7],Active
same,Drug uptake,[8],Active
same,IC50,[4],0.052 µM
same,Activity,[9],Non-Toxic
same,Drug uptake,[10],Not Active
same,Activity,[5],90.8%
same,IC50,in vitro,6.13 µM
same,Activity,DU-145 [11],Active
same,Activity,[12],Active
same,Activity,[6],76.7%
same,Activity,DU-145 [13],Active
same,Drug uptake,[14],Active
same,Activity,[15],inactive
same,Activity,[16],Non-Toxic
same,Drug uptake,[17],Not Active
same,Activity,DU-145 [18],Active
same,IC50,DU-145 [1],0.96 µM
same,Drug uptake,[19],Not Active
same,Drug uptake,[20],Not Active
same,IC50,Histone deacetylase 1,Not Active
same,Activity,[21],inactive
same,Drug uptake,[22],Active
O=C(CCCCCCC(=O)Nc1ccccc1)NO,Activity,DU-145 [13],Active
same,Activity,DU-145 [18],Active
